Holding throughout (experiment): NCI-60 cell line screen, 48 h
For assay [1], the system named is SF-295.
The subject of assay [2] is OVCAR-4.
For assay [3], the system named is NCI-H23.
For assay [4], the system named is HT-29.
The subject of assay [5] is OVCAR-8.
For assay [6], the system named is MOLT-4.
The test system of assay [7] is UO-31.
Assay [8] deals with TK-10.
In assay [9] the test system is 786-0.
For assay [10], the system named is SNB-78.
The test system of assay [11] is NCI-H522.
Assay [12] deals with HOP-62.
Assay [13] relates to KM-20L2.
Assay [14] concerns CCRF-CEM.
Assay [15] concerns IGROV-1.
In assay [16] the test system is SK-OV-3.
Assay [17] has as its system CAKI-1.
Assay [18] has as its system HCC 2998.

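Cultured in 96-well plates, cells were exposed to test compound for 48 hours across five concentrations. GI50 marks 50% less growth.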 Calls of active or inactive are those of the source. Rule as the data show it: active = GI50 up to about 1.1 µM and inactive = higher.

`CC(CN(C)C)/C(=N\Nc1ccccc1)c1ccccc1` (stereo not given): the GI50 was 0.0436 µM (active) in assay [1]; 0.794 µM (active) in [2]; 3.4 µM (inactive) in assay [3]; 2.08 µM (inactive) in assay [4]; 12.7 µM (inactive) in [5]; 0.184 µM (active) in [6]. Besides, the GI50 was 1.13 µM (inactive) in [7]; 1.02 µM (active) in assay [8]; 0.499 µM (active) in assay [9]; 6.1 µM (inactive) in assay [10]; 0.889 µM (active) in assay [11]; 0.767 µM (active) in assay [12]. In addition, the GI50 in assay [13] is 0.132 µM (active); in assay [14], 0.211 µM (active); in assay [15] it was 2.09 µM (inactive); in [16], 15.6 µM (inactive).
`CCN(CC)CCOC(=O)/C(=C/c1ccc(OC)cc1)c1cc(OC)c(OC)c(OC)c1`: the GI50 in assay [1] was 1.83 µM (inactive); in assay [2], 31.4 µM (inactive); in assay [17], 4.42 µM (inactive); in assay [4], 1.92 µM (inactive); in [5] it was 15.5 µM (inactive); in assay [6], 24.5 µM (inactive). Moreover, the GI50 was 5.13 µM (inactive) in assay [7]; 20.3 µM (inactive) in assay [8]; 7.64 µM (inactive) in assay [9]; 9.98 µM (inactive) in assay [10]; 2.75 µM (inactive) in assay [11]; 3.8 µM (inactive) in [12]. The figures for the GI50 in [13], in [14] and in [15] were 11.9 µM (inactive), 18.8 µM (inactive) and 6.01 µM (inactive), respectively.
For the compound `Cc1ccc([N+]2=NC(c3ccc([N+](=O)[O-])cc3)=NN(c3ccccc3)C2)cc1`, the GI50 is 53.3 µM (inactive) in assay [1]; 17.6 µM (inactive) in [2]; 38.4 µM (inactive) in assay [3]; 57.9 µM (inactive) in assay [4]; 42.1 µM (inactive) in [5]; 21 µM (inactive) in assay [6]. Further, the GI50 was 86.7 µM (inactive) in [7]; > 100 µM (inactive) in assay [8]; > 100 µM (inactive) in [9]; 32.5 µM (inactive) in assay [10]; 16.4 µM (inactive) in [11]; > 100 µM (inactive) in assay [12]. For the same compound, the GI50 in assay [13] was > 100 µM (inactive); in [14], 24.3 µM (inactive); in assay [15], 94.4 µM (inactive); in [18] it was > 100 µM (inactive).
As for `COC(=O)C1=C(c2ccc3c(c2)OCO3)O[C@H](c2cc(OC)c(OC)c(OC)c2)[C@H]1COC(C)=O`, the GI50 in assay [1] is 0.282 µM (active); in [2], 7.48 µM (inactive); in [3] it was 2.25 µM (inactive); in [17], 1.95 µM (inactive); in assay [4] it was 2.53 µM (inactive); in [5], 5.04 µM (inactive). The GI50 in assay [6] was 3.03 µM (inactive); in [7], 4.31 µM (inactive); in [8] it was 13.5 µM (inactive); in [9], 4.12 µM (inactive); in assay [10] it was 8.49 µM (inactive); in assay [12], 3.08 µM (inactive). The GI50 is 2.14 µM (inactive) in [13]; 7.87 µM (inactive) in assay [14]; 6.84 µM (inactive) in assay [15]; 1.74 µM (inactive) in assay [18]; 1.14 µM (inactive) in assay [16].
For the compound `CC(=O)Nc1ccc2c(c1)C(=O)c1ccccc1-2`, the GI50 in assay [1], in assay [3], in assay [4], in assay [5], in assay [6] and in [7] was > 100 µM (inactive) each time. Moreover, the GI50 in assay [8], in assay [9], in assay [10], in assay [11], in assay [12] and in assay [13] was > 100 µM (inactive) in each case. For the same compound, the GI50 in assay [14], in assay [15], in [18] and in [16] was > 100 µM (inactive) throughout.
Take `COc1cc([C@@H]2OC(=O)C3C2C(=O)O[C@H]3c2cc(OC)c(OC)c(OC)c2)cc(OC)c1OC` (stereo not given in full): the GI50 in assay [1], in assay [2], in [3], in assay [4], in assay [5] and in assay [6] was > 100 µM (inactive) throughout. In addition, the GI50 in assay [7], in assay [8], in assay [9], in assay [10], in [11] and in assay [12] was > 100 µM (inactive) each time. Moreover, the GI50 in assay [13], in assay [14], in assay [15], in [18] and in [16] was > 100 µM (inactive) throughout.
Regarding `COc1ccc(S(=O)(=O)N/N=C\c2cc([N+](=O)[O-])cc(I)c2O)c(OC)c1OC`, the GI50 in assay [1] is 30.6 µM (inactive); in [2], 28.4 µM (inactive); in [3], 30.5 µM (inactive); in [17], 30.1 µM (inactive); in assay [4], 32.2 µM (inactive); in assay [5] it was 34.4 µM (inactive). Besides, the GI50 is 25.1 µM (inactive) in assay [6]; 18.5 µM (inactive) in assay [7]; 40.4 µM (inactive) in assay [8]; 24.7 µM (inactive) in [9]; 28.6 µM (inactive) in assay [10]; 36.2 µM (inactive) in assay [13]. Further, the GI50 in [14] is 24.3 µM (inactive); in assay [15] it was 32 µM (inactive); in assay [18], 31.4 µM (inactive); in assay [16], 25 µM (inactive).
On to `O=C(Nc1nc2ccc([N+](=O)[O-])cc2s1)C(=O)C(C(=O)c1ccncc1)C1OC(=O)c2ccccc21` (stereo not given), for which the GI50 in assay [2], in assay [3], in assay [17], in assay [4], in [5] and in [6] was > 100 µM (inactive) throughout. The GI50 in assay [9], in assay [10], in [12], in [13], in assay [14] and in assay [15] was > 100 µM (inactive) throughout. The GI50 in assay [18] is > 100 µM (inactive).
As for `Cc1ccc(S(=O)(=O)CC(=O)CC(=O)C(=O)Nc2cccc(C(F)(F)F)c2)cc1`, the GI50 in assay [1] is > 100 µM (inactive); in assay [3] it was > 100 µM (inactive); in assay [17], > 100 µM (inactive); in [4], 55.3 µM (inactive); in assay [6] it was > 100 µM (inactive); in assay [7] it was > 100 µM (inactive). Further, the GI50 in [8], in assay [9], in [10], in assay [11], in assay [13] and in [14] was > 100 µM (inactive) each time. In addition, the GI50 in assay [15] and in [16] was > 100 µM (inactive) each time.
